Data on 1 molecule can be found in patent US20090208425A1, “TRANSMUCOSAL ADMINISTRATION OF 2,3-DIMETHOXY-5-METHYL-6-(10-HYDROXYDECYL)-1,4-BENZOQUINONE” (SANTHERA PHARMACEUTICALS (SCHWEIZ) AG, priority 2006, published 2009).

Where two headings read alike, the source gives them in different places.

Data set [1] is described as follows: First-pass hepatic metabolism of idebenone after oral administration. In kind it is in vivo. The conditions noted are these: after absorption in the gut (oral administration). The text has this:
As a lipophilic compound idebenone is well absorbed in the gastrointestinal tract after conventional oral administration, which is the normal route for administering said compound. Dosage forms such as tablets or capsules have been used in clinical trials and as marketed product. In the course of our investigations on the pharmacological profile of idebenone, we discovered that the compound, after being absorbed in the gut, is metabolized very quickly during its first passage through the liver (“first-pass-effect”). […] Hepatic metabolism of idebenone results in side chain oxidation, reduction of the quinone ring, sulphate and glucuronide conjugation and subsequent renal excretion. The high first-pass-effect leads to a fast reduction of pharmacologically active plasma levels of free idebenone. Because of this strong first pass metabolism, oral administration of idebenone requires high doses of the compound to achieve pharmacologically efficacious plasma levels in the body. Said high doses can result in unwanted side effects such as diarrhea.

The conditions of data set [2]: 536 patients, up to 360 mg idebenone t.i.d.; cited from earlier work.
The nature of data set [3]: Pharmacokinetics after sublingual (oromucosal) vs. oral delivery of idebenone micro-emulsion in dogs. In kind it is in vivo, Beagle dogs. The conditions noted are these: for Cmax / Tmax / AUC(0-t): beagle, dog, mean; for AUC(0-t): read-out: AUC0-480 of idebenone (converted). The protocol:
Quantification of idebenone was performed by liquid chromatography (LC) coupled on-line with tandem mass spectrometry (MS/MS). Calibration samples were prepared in human plasma and quality control (QC) samples were prepared in dog plasma.
150 μl of dog plasma were treated with 10 μl of an EDTA solution, prepared by dissolution of 1245 mg EDTA-potassium salt in 33 ml of 1M NH4OAc, and 300 μl of Methanol. After vigorous shaking, samples were centrifuged for 45 minutes with 1960 RCF at 4° C. A 50 μl aliquot of the supernatant was injected into the LC-MS/MS system. All unknown, calibration and QC samples were subjected to the same assay procedure.
Idebenone was separated and quantified by HPLC-MS/MS: For HPLC, a Synergi™ 4μ MAX-RP (50×2 mm) column (Phenomenex, Schlieren, Switzerland) was used. Column temperature: 50° C. Mobile phase A: water+30 mM NH4OAc; mobile phase B: MeOH/H2O 100/3 (v/v)+30 mM NH4OAc, gradient elution (table 4). Flow: 250 μl/min and 400 μl/min.
Once separated, idebenone was quantified by ESI-MS/MS (API 4000, Perkin-Elmer-Europe BV, Rotkreuz, Switzerland) in positive mode.
Idebenone conjugates such as glucuronates and sulphates have been quantified after acidic hydrolysis as described by R. Artuch, C. Colomé, M. A. Vilaseca, A. Aracil. M. Pineda, J. Neurosci. Meth. 115 (2002), 63-66.
Plasma levels of idebenone were studied after the administration of a micro-emulsion, prepared as described in example 1, to dogs (n=3). The sublingual administration of 4 mg/kg was compared with 40 mg/kg oral administration in a cross-over design. Blood samples were collected for 8 hours after administration. Concentrations of idebenone in plasma were measured by HPLC-MS/MS as described in example 4 and pharmacokinetic parameters were calculated.
The pharmacokinetic analysis included maximum plasma concentration (Cmax), the time when maximum plasma concentration was observed (Tmax), and the area under the plasma concentrations versus time curve from time 0 h to 480 min (AUC0-480min). The relative bioavailability of idebenone after sublingual administration compared to the oral administration was calculated for each dog from normalized (1 mg/kg) AUC values. The AUC ratios of the metabolites were also calculated. In addition, Cmax ratios, normalized to a 1 mg/kg dose, were calculated.

The mark [4] stands for this setting: 4 mg/kg oro-mucosal (sublingual), micro-emulsion of example 1, dogs n=3, plasma.
Setting [5] is: 40 mg/kg oral (p.o.), dogs n=3, plasma.
Where [6] appears, read: oromucosal (4 mg/kg) vs. oral (40 mg/kg), normalized to a 1 mg/kg dose, dogs.

Turning to `COC1=C(OC)C(=O)C(CCCCCCCCCCO)=C(C)C1=O` [idebenone, 2,3-dimethoxy-5-methyl-6-(10-hydroxydecyl)-1,4-benzoquinone], in data set [1], the “idebenone metabolized during its first passage through the liver” value is “more than 98%”. Moreover, in data set [2], the “treatment emergent adverse events compared to placebo” value was “no treatment emergent adverse events except some gastrointestinal irritations as well as a slight increase in orthopedic events”. Further, in data set [3] (setting [4]), the Cmax – broadly, the peak of the concentration-time curve – is 106 ng/mL; the Tmax (commonly the time from dosing to the highest level) is 6.3 min; the AUC(0-t) was 21.1 ng·h/mL. Moreover, in data set [3] (setting [5]), the Cmax was 31.9 ng/mL, the Tmax is 22.7 min and the AUC(0-t) is 18 ng·h/mL. Moreover, in data set [3] (setting [6]), the “AUC ratio, idebenone (normalized for dose)” value is listed as 11.1 and the “Cmax ratio, idebenone (normalized for dose)” value came to 36.8.
